From article PMC9923724, “Half sandwich-type osmium, ruthenium, iridium and rhodium complexes with bidentate glycosyl heterocyclic ligands induce cytostasis in platinum-resistant ovarian cancer cells and bacteriostasis in Gram-positive multiresistant bacteria” (Frontiers in Chemistry, 2023)
Values joined by “and” are separate entries in the source; they are usually repeats but may differ in a detail not shown here. Equal values may be shown once.

Experiments:
[1] = Determination of the distribution coefficients (logD); format: physicochemical; settings: distribution coefficient
[2] = system: vancomycin-resistant Enterococcus (VRE) clinical isolates; assay: Broth microdilution MIC, clinical VRE isolates; format: cell-based, E. faecium; settings: for VRE isolates susceptible out of those tested: 3 isolates tested, susceptible = MIC up to 40 µM; for MIC, VRE 25 051: clinical isolate 25 051, nephrostoma; for MIC, VRE 25 051 / MIC, VRE 25 498 / MIC, VRE 27 085: 2018; for MIC, VRE 25 498: clinical isolate 25 498, rectal swab; for MIC, VRE 27 085: clinical isolate 27 085, wound; for MIC against clinical VRE isolates (as a group): 3 clinical VRE isolates
Protocol: (§1) The MIC values of the complexes were determined against the reference strains of S. aureus (ATCC29213) and E. faecalis. (ATCC29212) and against clinical VRE and MRSA isolates by microdilution assays (repeated at least twice in duplicates) as described in Materials and Methods. The numbers indicate how many isolates were susceptible to the compound out of those tested; i.e., 1/6 stands for 1 isolate was susceptible out of 6 tested. […] Cells were harvested and lysed. Cellular proteins was separated on a 10% SDS-PAGE gel and were blotted. Blots were probed with 4HNE antibody (top blot), the lower blot was stained with amido black. Arrows point at band of interest. Experiments were repeated three times and a representative blot is shown. On the blots brightness and contrast were adjusted. […] Each was matched to a substance and strain by its position over the x-axis categories. / Ir-7: ND and 0/3 (left plot) and ND and 0/6 (right plot) were matched to E. faecalis/VRE and S. aureus/MRSA by position only.
(§2) We used a set of clinical isloates of S. aureus and E. faecium that were collected at the Medical Center of the University of Debrecen (Hungary) between 01. 01. 2018.—31. 12. 2020. The clinical isolates were identified using a Microflex MALDI-TOF mass spectrometer (Bruker, Billerica, MA, United States). Antibiotic susceptibility of the isolates was tested following the European Committee on Antimicrobial Susceptibility Testing ([EUCAST, 2021]) guidelines valid at the time of collection.
(§3) Microdilution experiments were performed according to the standards of EUCAST ([EUCAST, 2021]). […] The inoculated plates were incubated for 24 h at 37°C then were assessed visually. […] All experiments were performed at least twice in duplicates.

[3] = system: Enterococcus faecalis (ATCC29212); assay: Broth microdilution MIC, Enterococcus faecalis reference strain; format: cell-based; settings: for MIC, Reference E. faecalis: Enterococcus faecalis ATCC29212, 24 h; for MIC (μM) (E. faecalis), Figure 11: reference strain ATCC29212, printed in the picture
Protocol: as §1
(§4) We used the reference strains of Staphylococcus aureus (ATCC29213), and Enterococcus faecalis (ATCC29212) that were purchased from ATCC (Manassas, VA, United States).
as §3

[4] = system: A2780 ovarian cancer cells; assay: MTT reduction assay (rapid toxicity, 4 h) on A2780 cells; format: cell-based; settings: 4 h treatment
Protocol: (§5) First, we assessed a set of osmium complexes (similar to Ia [[Kacsir et al., 2022]) in Figure 1] and their sugar-derived ligands, in which the benzoyl protective groups on the carbohydrate moiety were replaced by aliphatic acyl groups of different chain length (straight chain C3-C7–CO). Osmium was selected as a central ion, since osmium complexes had the best biological activity in our previous studies ([Balázs et al., 2022]; [Kacsir et al., 2022]). These compounds were tested on A2780 ovarian cancer cells for toxicity and cytostasis. The therapy of ovarian cancer is centered around platinum compounds ([Brown et al., 2019]; [Sipos et al., 2021]), therefore, it was logical to use a cellular model of ovarian cancer for the initial testing of the compounds. Toxicity was assessed using the MTT assay that measures the activity of mitochondrial complex I. We chose 4 h long treatment as in an MTT assay this time point is suitable to detect rapid, direct toxicity. Cytostasis was assessed after 48 h of treatment using the SRB assay that assesses protein content that corresponds to cell count. The characteristics of the compounds are detailed in Table 2.
(§6) 3 × 10^3 A2780 cells, were plated to 96 well plates. Cells were treated with the compounds in the concentrations indicated for either 4 h for an MTT assay or for 48 h for an SRB assay. Data is represented as average ± SD, from three biological replicates; individual assays were performed in duplicates. Values were normalized for vehicle treated cells, absorbance for vehicle treated cells equals to 1. […] Except for the Os-6 complex, Two-way ANOVA test was performed and all values were compared with each other (Tukey’s post hoc test). […] Non-linear regression was performed on the data.
(§7) 3 × 10^3 A2780 cells, 2 × 10^3 ID8 cells and 4 × 10^3 primary fibroblasts were plated to 96 well plates. Cells were treated with the compounds in the concentrations indicated for either 4 h for an MTT assay or for 48 h for an SRB assay. Data is represented as average ± SD, from three biological replicates; individual assays were performed in duplicates. Values were normalized for vehicle treated cells, absorbance for vehicle treated cells equals to 1. Statistical significance was assessed using two-way ANOVA test comparing the free ligand and each complex as a complex-ligand pair. Before the test normality was assessed using the D’Agostino-Pearson test. The ID8 SRB Ir-7+L-7 dataset had lognormal distribution. […] All other datasets had normal distribution. For better visibility the p values are presented in an excel sheet at https://figshare.com/s/2c942a812caea8869a67. Non-linear regression was performed on the A2780 SRB and the ID8 SRB datasets.
MTT reduction assay measures the activity of mitochondrial complex I and can be used to detect toxicity ([Virág et al., 1998]; [Henslee et al., 2016]). The assay was performed similar to ([Bakondi et al., 2003]). Briefly, cells were plated in 96 well plates the day before the assay. Cells were treated with the compounds for 4 h, then MTT was added in 0.5 mg/ml final concentration and cells were incubated at 37°C in a cell incubator. Culture media was removed and the reduced MTT dye was dissolved in dimethyl-sulfoxide (DMSO) and plates were measured in a plate photometer (Thermo Scientific Multiscan GO spectrophotometer, Waltham, MA, United States) at 540 nm. On each plate wells were designed to contain untreated/vehicle-treated cells. In calculations the readings for these wells was considered as 1 and all readings were expressed relative to these values.

[5] = system: A2780 ovarian cancer cells; assay: SRB assay (cytostasis, 48 h) on A2780 cells; format: cell-based; settings: 48 h treatment
Protocol: as §5, §6, §7
The assay was performed similar to ([Kovács et al., 2019]). Cells were seeded in 96 well plates the day before the assay. Cells were treated with the compounds for 48 h. Cells were fixed with 10% trichloroacetic acid (TCA). Fixed cells were washed in distilled water 3 times followed by staining with SRB (0.4 m/V% dissolved in 1% acetic acid) for 10 min. Stained cells were washed in 1% acetic acid 5 times; acetic acid was removed and cells were left to dry. Protein-bound SRB was released by adding 100 µl 10 mM Tris base. Plates were measured in a plate photometer (Thermo Scientific Multiscan GO spectrophotometer, Waltham, MA, United States) at 540 nm. On each plate wells were designed to contain vehicle-treated cells. In calculations the readings for these wells was considered as 1 and all readings were expressed relative to these values.
Statistical analysis was performed using 8.0.1 version of Graphpad Prism. Values were tested for normal distribution using the D’Agostino and Pearson normality test. When necessary, values were log normalized or were normalized using the Box-Cox normalization method ([Box and Cox, 1964]) as indicated in the figure captions. […]

[6] = system: Staphylococcus aureus (ATCC29213); assay: Broth microdilution MIC, Staphylococcus aureus reference strain; format: cell-based; settings: for MIC, Reference S. aureus: Staphylococcus aureus ATCC29213, 24 h; for MIC (μM) (S. aureus), Figure 11: reference strain ATCC29213
Protocol: as §1, §4, §3

[7] = system: methicillin-resistant Staphylococcus aureus (MRSA) clinical isolates; assay: Broth microdilution MIC, clinical MRSA isolates; format: cell-based; settings: for MRSA isolates susceptible out of those tested: 6 isolates tested, susceptible = MIC up to 40 µM; for MIC, MRSA 20 426: clinical isolate 20 426, blood, 2020; for MIC, MRSA 24 035: clinical isolate 24 035, wound; for MIC, MRSA 24 035 / MIC, MRSA 24 268 / MIC, MRSA 24 272 / MIC, MRSA 24 328 / MIC, MRSA 24 408: 2018; for MIC, MRSA 24 268: clinical isolate 24 268, throat; for MIC, MRSA 24 272: clinical isolate 24 272, throat; for MIC, MRSA 24 328: clinical isolate 24 328, throat; for MIC, MRSA 24 408: clinical isolate 24 408, bronchial; for MIC against clinical MRSA isolates (as a group): 6 clinical MRSA isolates
Protocol: as §1, §2, §3

| Compound | LogD [1] | VRE isolates susceptible out of those tested [2] | MIC, VRE 25 051 [2] | MIC, VRE 25 498 [2] | MIC, VRE 27 085 [2] | MIC, Reference E. faecalis [3] | A2780 MTT Max. (maximal inhibition) [4] [%] | A2780 SRB Max. (maximal inhibition) [5] [%] | IC50 [5] [µM] | MIC, Reference S. aureus [6] | MRSA isolates susceptible out of those tested [7] | MIC, MRSA 20 426 [7] | MIC, MRSA 24 035 [7] | MIC, MRSA 24 268 [7] | MIC, MRSA 24 272 [7] | MIC, MRSA 24 328 [7] | MIC, MRSA 24 408 [7] | also measured |
| --- | --- | --- | --- | --- | --- | --- | --- | --- | --- | --- | --- | --- | --- | --- | --- | --- | --- | --- |
| CCCCC(=O)OCC1OC(n2cc(-c3ccccn3)nn2)C(OC(=O)CCCC)C(OC(=O)CCCC)C1OC(=O)CCCC.Cc1ccc(C(C)C)cc1.F[P-](F)(F)(F)(F)F.[Cl][Os+] (mixture of isomers) [Os-3] | 2.6 | 3/3 | 5 µM | 5 µM | 5 µM | 2.5—10 µM and 5 µM | 84.4 | >90 | 2.1 | 2.5—10 µM and 2.5 µM | 6/6 | 5 µM | 2.5 µM | 2.5 µM | 5 µM | 2.5 µM | 5 µM |  |
| CCCCCCCC(=O)OCC1OC(n2cc(-c3ccccn3)nn2)C(OC(=O)CCCCCCC)C(OC(=O)CCCCCCC)C1OC(=O)CCCCCCC.Cc1ccc(C(C)C)cc1.F[P-](F)(F)(F)(F)F.[Cl][Os+] (mixture of isomers) [Os-6] | 2.8 | 0/3 | 40< µM | 40< µM | 40< µM | 40< µM | 76.9 | 88.4 |  | 40< µM | 0/6 | 40< µM | 40< µM | 40< µM | 40< µM | 40< µM | 40< µM | MIC against clinical VRE isolates (as a group) [2]: > 40 µM; MIC (μM) (E. faecalis), Figure 11 [3]: ND (ND—not detected, MIC>40 µM); IC50 [4]: 16.5 µM; MIC (μM) (S. aureus), Figure 11 [6]: ND (ND—not detected, MIC>40 µM); MIC against clinical MRSA isolates (as a group) [7]: > 40 µM |
| CCCCCCC(=O)OC[C@H]1O[C@@H](n2cc(-c3ccccn3)nn2)[C@H](OC(=O)CCCCCC)[C@@H](OC(=O)CCCCCC)[C@@H]1OC(=O)CCCCCC [L-5] |  |  |  |  |  |  |  | 28.5 |  |  |  |  |  |  |  |  |  |  |
| CCCC(=O)OC[C@H]1O[C@@H](n2cc(-c3ccccn3)nn2)[C@H](OC(=O)CCC)[C@@H](OC(=O)CCC)[C@@H]1OC(=O)CCC [L-2] |  |  |  |  |  |  |  | 21.2 |  |  |  |  |  |  |  |  |  |  |
| CCCC(=O)OCC1OC(n2cc(-c3ccccn3)nn2)C(OC(=O)CCC)C(OC(=O)CCC)C1OC(=O)CCC.Cc1ccc(C(C)C)cc1.F[P-](F)(F)(F)(F)F.[Cl][Os+] (mixture of isomers) [Os-2] | 2.5 | 3/3 | 10 µM | 10 µM | 10 µM |  | 88 | >90 | 6.23 | 2.5—10 µM and 2.5 µM | 6/6 | 2.5 µM | 2.5 µM | 5 µM | 5 µM | 2.5 µM | 5 µM |  |
| O=C(OC[C@H]1O[C@@H](n2cc(-c3ccc4ccccc4n3)nn2)[C@H](OC(=O)c2ccccc2)[C@@H](OC(=O)c2ccccc2)[C@@H]1OC(=O)c1ccccc1)c1ccccc1 [L-7, 1-(2’,3’,4’,6’-tetra-O-benzoyl-β-D-glucopyranosyl)-4-(quinolin-2-yl)-1,2,3,-triazole] |  |  |  |  |  |  |  | 16.9 |  |  |  |  |  |  |  |  |  |  |
| CCCCCC(=O)OC[C@H]1O[C@@H](n2cc(-c3ccccn3)nn2)[C@H](OC(=O)CCCCC)[C@@H](OC(=O)CCCCC)[C@@H]1OC(=O)CCCCC [L-4] |  |  |  |  |  |  |  | 26.9 |  |  |  |  |  |  |  |  |  |  |
| CCCCC(=O)OC[C@H]1O[C@@H](n2cc(-c3ccccn3)nn2)[C@H](OC(=O)CCCC)[C@@H](OC(=O)CCCC)[C@@H]1OC(=O)CCCC [L-3] |  |  |  |  |  |  |  | 32.0 |  |  |  |  |  |  |  |  |  |  |
| CCCCCCC(=O)OCC1OC(n2cc(-c3ccccn3)nn2)C(OC(=O)CCCCCC)C(OC(=O)CCCCCC)C1OC(=O)CCCCCC.Cc1ccc(C(C)C)cc1.F[P-](F)(F)(F)(F)F.[Cl][Os+] (mixture of isomers) [Os-5] | 2.7 | 0/3 | 40< µM | 40< µM | 40< µM | 40< µM | 83.4 | >90 | 15.9 | 40< µM | 0/6 | 40< µM | 40< µM | 40< µM | 40< µM | 40< µM | 40< µM | MIC against clinical VRE isolates (as a group) [2]: > 40 µM; MIC (μM) (E. faecalis), Figure 11 [3]: ND (ND—not detected, MIC>40 µM); MIC (μM) (S. aureus), Figure 11 [6]: ND (ND—not detected, MIC>40 µM); MIC against clinical MRSA isolates (as a group) [7]: > 40 µM |
